Laboratory results from patent US8557746B2, “High throughput screens for small-molecule inhibitors of the nuclear receptor-like pathway regulating multidrug resistance in fungi” (The General Hospital Corporation, priority 2009, dated 2013).
“Also recorded” adds a separate entry of the source.

Assays:
S. cerevisiae gal11Δ = experiment: Drug sensitivity assay on agar, S. cerevisiae GAL11 deletion strain; format: cell-based; conditions: growth on YPD agar with increasing drug concentration
Procedure: (§1) Fresh S. cerevisiae colonies were inoculated in 5 ml of YPD or SD selection medium, and grown overnight at 30° C. The cells were diluted to an OD600 of 0.2, and 2 μl were spotted on agar-based solid medium containing an increasing gradient of drugs (for example, ketoconazole, cycloheximide, or 4-NQO) in the agar. The plates were incubated at 30° C. for 2-3 days. Susceptibility of the C. glabrata mutants was tested by spotting serial dilutions of cells onto YPD agar plates supplemented with fluconazole or ketoconazole. The yeast strains were grown overnight at 30° C. in YPD liquid medium. Cells were diluted to an OD600 of 2.0 in PBS, and 4 μl of the cell suspension and tenfold serial dilutions of the cells were spotted onto plates. Growth was assessed after 1 day of incubation at 30° C.

C. glabrata = experiment: C. elegans liquid killing assay; format: in vivo; conditions: fluconazole 8 μg/ml; for survival of nematodes infected with wild-type C. glabrata under antifungal treatment: six-day experiment
Procedure: The C. glabrata strains and lawns were grown and prepared as described previously. Breger, 3 PloS Pathogens, el8 (2007). The liquid medium killing assays were conducted as detailed in Breger, 2007, with a few changes. After the glp-4;sek-I worms were incubated at 25° C. for 2 days, they were washed off the nematode growth medium plates with M9 and transferred to C. glabrata lawns formed on Brain-Heart Infusion broth (Difco) agar plates. The worms were incubated on the lawns for 4 hr at 25° C., then washed off the plates with M9 buffer and allowed to crawl on unneeded Brain-Heart Infusion broth plates to remove yeast cells from their cuticles. Approximately 70-80 worms were then picked to wells in a six-well microtiter dish that contained 2 ml of liquid medium of 79% M9 buffer, 20% Brain-Heart Infusion broth, 10 μgml^−1 cholesterol in ethanol, and 90 μgml^−1 kanamycin, with the addition of 0.25% DMSO or 8 μgml^−1 fluconazole. The plates were incubated at 25° C. overnight and then examined at 24 hr intervals for survival. […] P values were calculated based on the entire six-day experiment with the log rank and Wilcoxon tests performed by STATA 6 statistical software (Stata, College Station, Tex.).

C. glabrata Cggal11AΔ = experiment: Drug sensitivity growth assay, C. glabrata CgGAL11A deletion strain; format: cell-based; conditions: growth assays on YPD plates
Procedure: as §1

Myc6-Pdr1p = target: T1, Myc6-Pdr1p (Saccharomyces cerevisiae, UniProt P12383); experiment: Drug-binding and cold competition assay with 3H-ketoconazole; parameters: species or system S. cerevisiae; conditions: for competition of binding of radiolabelled ketoconazole to Pdr1p by unlabelled xenobiotic: unlabelled xenobiotic at 1,000-fold excess of KET
T1 construct: N-terminal Myc-tagged full-length wild-type Pdr1p (Myc6-Pdr1pwt); made in house; host or cells: yeast (S. cerevisiae), immunopurified with anti-Myc 9E10 on Protein A/G beads
T1 sequence (P12383 whole entry): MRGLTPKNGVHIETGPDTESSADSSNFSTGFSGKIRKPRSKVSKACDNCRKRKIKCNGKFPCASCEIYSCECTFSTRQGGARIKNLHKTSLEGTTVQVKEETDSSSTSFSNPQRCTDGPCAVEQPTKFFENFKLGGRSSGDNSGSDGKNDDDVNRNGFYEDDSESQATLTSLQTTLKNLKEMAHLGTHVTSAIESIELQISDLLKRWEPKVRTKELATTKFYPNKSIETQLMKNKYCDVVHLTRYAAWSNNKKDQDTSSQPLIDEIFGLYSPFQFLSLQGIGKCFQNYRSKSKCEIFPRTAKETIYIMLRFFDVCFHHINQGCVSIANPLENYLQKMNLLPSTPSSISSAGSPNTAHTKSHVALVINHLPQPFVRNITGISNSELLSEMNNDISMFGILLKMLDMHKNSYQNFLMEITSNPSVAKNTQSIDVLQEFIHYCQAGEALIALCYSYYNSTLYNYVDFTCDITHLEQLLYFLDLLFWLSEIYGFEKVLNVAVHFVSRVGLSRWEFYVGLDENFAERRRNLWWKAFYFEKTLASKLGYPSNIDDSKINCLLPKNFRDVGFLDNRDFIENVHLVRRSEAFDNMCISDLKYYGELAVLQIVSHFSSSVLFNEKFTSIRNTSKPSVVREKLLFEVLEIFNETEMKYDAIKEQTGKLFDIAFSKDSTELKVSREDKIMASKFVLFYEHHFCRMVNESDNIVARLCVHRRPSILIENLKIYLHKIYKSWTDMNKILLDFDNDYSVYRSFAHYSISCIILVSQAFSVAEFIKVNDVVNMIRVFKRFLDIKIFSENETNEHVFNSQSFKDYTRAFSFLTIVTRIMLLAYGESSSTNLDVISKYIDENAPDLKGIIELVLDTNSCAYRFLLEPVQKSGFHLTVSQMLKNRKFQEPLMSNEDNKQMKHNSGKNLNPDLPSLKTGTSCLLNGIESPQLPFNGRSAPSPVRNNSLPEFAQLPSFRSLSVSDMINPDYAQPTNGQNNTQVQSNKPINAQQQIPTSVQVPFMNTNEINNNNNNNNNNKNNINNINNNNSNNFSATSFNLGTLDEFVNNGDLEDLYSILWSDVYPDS
Procedure: (§2) For co-immunoprecipitation, yeast cells were transformed with Myc6-Pdr1pwt and Gal11p-Flag2 (or Gal11pAKIX-Flag2). Cells were washed with 1×PBS after overnight culture in YPD medium, and then cultured in YP for another 24 hr. Cells were then treated with different concentrations of ketoconazole and cycloheximide (or ethanol for vehicle controls) for 1 hr. Yeast cell lysates were extracted in immunoprecipitation buffer (50 mM Tris-HCI, pH 8.0, 140 mM NaCl, 0.1 mM EDTA, 10% glycerol, 0.02% NP-40, 1 mM DTT, 0.25 mM PMSF, 1 mM benzamidine, 0.5 mgml^−1 aprotinin and Protease Inhibitor Cocktail (Complete, Roche)), with or without xenobiotics by vortexing in the presence of glass beads. The Flag-tagged proteins were then immunoprecipitated by adding anti-Flag M2 antibody-beads (Sigma) and incubating for 3 hr with mutating at 4 C. After washing five times with 1 ml of 0.25 M KCl IP buffer, bound proteins were eluted with 0.1 mgml^−1 Flag peptide (Sigma). Xenobiotics at the indicated concentrations were present at all steps of the co-immunoprecipitation, including washing. Immunoblotting was performed according to standard protocols. To immunopurify Myc6-Pdr1pwt or HA-Pdr1pwt, yeast whole-cell extract (in immunoprecipitation buffer) was incubated with anti-Myc (9E10) antibody or anti-HA (F-7) antibody, and a 50% mix of Protein A- and G-Sepharose beads (Amersham) at 4° C. for 3 hr. Beads were washed with IP buffer five times, and used for drug-binding experiments as outlined herein.
Xenobiotic-binding experiments were performed essentially as described (Kapinsky & Lasar, 435 Nature 446-51 (2005)), with some modifications as explained herein. Radiolabelled ketoconazole (KET: [^3H]G), specific radioactivity 10 Ci mmol^−1, was purchased from American Radiolabelled Chemicals. Beads with either immunopurified proteins or GST recombinant proteins were incubated with KET ([^3H]G) in drug-binding buffer (10 mM K2HPO4, 10 mM KH2PO4, pH 7.0, 2 mM EDTA, 50 mM NaCl, 1 mM DTT, 0.5 mM CHAPS, 10% glycerol and protease inhibitors) at 4° C. for 3 hr with mixing in a volume of 500 μl. […]

PDR5 gene = experiment: Xenobiotic-induced transcription of Pdr1p/Pdr3p target genes by quantitative real-time RT-PCR; format: cell-based; conditions: S. cerevisiae, Pdr1p/Pdr3p-dependent, 20 min drug treatment
Procedure: Yeast cultures were grown overnight with agitation in YPD at 30° C. The next day, cells were pelleted and washed twice with sterilized purified water (Millipore). Cells were then resuspended in 1% yeast extract and 2% peptone (YP) to an optical density (OD600) of 0.8, grown for another 16 hr at 30° C., then treated with different drugs for 20 min for quantitative RT-PCR, or 5 hr for β-galactosidase assay.
Total RNA was extracted from 5 ml of yeast culture using the Qiagen RNeasy MiniKit. Two micrograms of total RNA was used to generate cDNA using the First-Strand cDNA Synthesis Kit (GE Healthcare). The cDNA mix was diluted tenfold, and 2 μl was used for real-time quantitative PCR with SYBR Green (Applied Biosystems) on an ABI Prism 7900HT Sequence Detection System (Applied Biosystems).

CgPdr1p = experiment: Binding of 3H-ketoconazole to immunopurified CgPdr1p; parameters: species or system C. glabrata; conditions: immunopurified Myc6-CgPdr1p on beads
Procedure: as §2, with “Immunoblotting was performed according to standard protocols. To immunopurify Myc6-Pdr1pwt or HA-Pdr1pwt, yeast whole-cell extract (in immunoprecipitation buffer) was incubated with anti-Myc (9E10) antibody or anti-HA (F-7) antibody, and a 50% mix of Protein A- and G-Sepharose beads (Amersham) at 4° C. for 3 hr. Beads were washed with IP buffer five times, and used for drug-binding experiments as outlined herein.” left out
Xenobiotic-binding experiments were performed essentially as described (Kapinsky & Lasar, 435 Nature 446-51 (2005)), with some modifications as explained herein. Radiolabelled ketoconazole (KET: [^3H]G), specific radioactivity 10 Ci mmol^−1, was purchased from American Radiolabelled Chemicals. […]

[1] = system: S. cerevisiae wild-type cells; experiment: High throughput cell viability screen (OD600) with or without ketoconazole; format: cell-based; conditions: OD600, two-fold dilutions from 30 μg/mL, with ketoconazole
Procedure: Briefly, S. cerevisiae or C. glabrata wild-type cells are grown to exponential growth phase and added to 384-well plates. Each well contains rich media with either (a) drug of interest or (b) drug of interest with ketoconazole. Serial 2-fold dilutions of compounds are tested to determine concentration-dependent effects upon cell viability. Cells are incubated at 30° C. and optical density (OD600) is measured to determine cell growth. Plates are set up in duplicate and compounds are scored for their ability to inhibit cell growth in the presence or absence of ketoconazole. For S. cerevisiae screening, wild-type inoculum cultures were grown in YPD (1% yeast extract, 2% bacto-peptone, 2% dextrose) at 30° C., 200 rpm overnight. On day 2, these cultures were expanded to log-phase growth in the morning (OD600˜0.500). On day 3, compounds of interest were added to 25 μL of YPD or YPD+10 μM ketoconazole at an initial concentration of 30 μg/mL and set up as 5 two-fold serial dilutions. Log-phase wild-type cultures with an OD600˜0.500 were diluted to an OD600 of 0.005 and added at an equal volume (25 μL) of wild-type cells to wells with compounds +/− ketoconazole. Initial OD600 values were read with a Perkin Elmer EnVision and plates incubated in a moist chamber at 30° C. OD600 was read at 24 hr, 48 hr, 72 hr and 96 hr. […]

O=[N+]([O-])c1cc[n+]([O-])c2ccccc12 [4-nitroquinoline oxide]
sensitivity of GAL11 deletion strain to toxin/xenobiotic (S. cerevisiae gal11Δ): striking sensitivity

OC(Cn1cncn1)(Cn1cncn1)c1ccc(F)cc1F [fluconazole]
survival of nematodes infected with Cggal11B or Cgmed1 deletion strains in the presence of antifungal (C. glabrata; Cggal11B or Cgmed1 deletion strains): little difference in survival rates
survival of nematodes infected with Cgpdr1 and Cggal11A deletion strains in the presence of antifungal (C. glabrata): significantly increased survival
survival of nematodes infected with Cgpdr1 and Cggal11A deletion strains in the presence of antifungal (C. glabrata; listed as Fluconazole): increased the lifespan of nematodes
survival of nematodes infected with wild-type C. glabrata under antifungal treatment (C. glabrata): completely resistant; also recorded: death of most nematodes within six days
sensitivity of CgGAL11A deletion strain to drug (C. glabrata Cggal11AΔ): markedly increased sensitivity

C[C@@H]1C[C@@H]([C@H](O)CC2CC(=O)NC(=O)C2)C(=O)[C@@H](C)C1 [cycloheximide]
competition of binding of radiolabelled ketoconazole to Pdr1p by unlabelled xenobiotic (Myc6-Pdr1p): effectively competed
induction of expression of drug efflux pump PDR5 and other Pdr1p/Pdr3p target genes (PDR5 gene): induced
sensitivity of GAL11 deletion strain to toxin/xenobiotic (S. cerevisiae gal11Δ): striking sensitivity
sensitivity of CgGAL11A deletion strain to drug (C. glabrata Cggal11AΔ): markedly increased sensitivity

CC(=O)N1CCN(c2ccc(OCC3COC(Cn4ccnc4)(c4ccc(Cl)cc4Cl)O3)cc2)CC1 (stereo not drawn) [ketoconazole]
Kd (Myc6-Pdr1p; cold ligand competition, 0.1 μM 3H-KET, Myc6-Pdr1p, read-out: dissociation constant (KD) of binding to immunopurified Pdr1p): ~39 µM
competition of binding of radiolabelled ketoconazole to Pdr1p by unlabelled xenobiotic (Myc6-Pdr1p): effectively competed
induction of expression of drug efflux pump PDR5 and other Pdr1p/Pdr3p target genes (PDR5 gene): induced
direct binding of radiolabeled compound to CgPdr1p (CgPdr1p): binds directly
survival of nematodes infected with wild-type C. glabrata under antifungal treatment (C. glabrata): completely resistant
sensitivity of GAL11 deletion strain to toxin/xenobiotic (S. cerevisiae gal11Δ): striking sensitivity
sensitivity of CgGAL11A deletion strain to drug (C. glabrata Cggal11AΔ): markedly increased sensitivity

CN(C/C=C/C#CC(C)(C)C)Cc1cccc2ccccc12 [terbinafine]
growth inhibition in the presence of ketoconazole [1]: eliminate cell growth
